# Tests used:
# [1] = test system: eosinophils; test: Eosinophil shape change assay with human plasma; format: cell-based; settings: Homo sapiens, Eosinophil, human plasma (50%), PGD2 100 nM activation, antagonistic activity
# Excerpt: Eosinophil Shape Change Assay with Human Plasma
# After obtaining informed consent, blood samples were drawn by venipuncture according to the protocol approved by the ethics committee of Basel, Switzerland. Polymorphonuclear leukocytes (containing eosinophils, basophils and neutrophils) were isolated using the Polymorphprep™ method (Axis-Shield). […] The polymorphonuclear cell fraction was harvested and depleted for erythrocytes by hypotonic saline lysis.
# The polymorphonuclear cells were resuspended in assay buffer (1×PBS with Ca^2+/Mg^2+ supplemented with 0.1% BSA, 10 mM HEPES, and 10 mM Glucose, pH 7.4) at 5×10^6 cells/ml and stained with anti-CD49d-APC ((APC=Allophycocyanin) for 1 hour at RT. Test compounds, at various concentrations, were preincubated 10 min in human plasma (anticoagulated with a thrombin inhibitor). Then, human plasma was added to the polymorphonuclear cells to 50% of final assay volume with polymorphonuclear cells at 4×10^6 cells/ml. After incubation for 10 minutes at 37° C., the polymorphonuclear cells were activated for 5 min at 37° C. by addition of PGD2 at 100 nM final concentration. Activation was stopped by addition of 0.5 ml paraformaldehyde (1%).
# Immediately after fixation with paraformaldehyde, the samples were analyzed by FACSCanto flow cytometer (BD Biosciences) and target cells were identified by their forward-scatter (FSC) and side-scatter (SSC) characteristics. Eosinophils were identified by the anti-CD49d-APC signal and their characteristic side-scatter (SSC) profile. Shape change responses, indicative of eosinophil activation, were quantified as the percent of cells with an increased forward-scatter.
# [2] = target: hCRTH2 receptor (Homo sapiens (Human), UniProt Q9Y5Y4); test: hCRTH2 receptor membranes radioligand (3H-PGD2) displacement assay; format: binding; settings: 3H-PGD2 radioligand displacement, HEK293-hCRTH2 membranes
# Method in brief: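 Compound was first mixed with buffer, then 3H-PGD2 was added at 2.5 nM, and the reaction was started with hCRTH2 membranes from HEK293 cells at 20 μg/well. After 90 min at room temperature, mixtures were filtered and washed with ice-cold buffer, and retained radioactivity was counted.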
# hCRTH2 receptor, sequence (Q9Y5Y4 whole entry): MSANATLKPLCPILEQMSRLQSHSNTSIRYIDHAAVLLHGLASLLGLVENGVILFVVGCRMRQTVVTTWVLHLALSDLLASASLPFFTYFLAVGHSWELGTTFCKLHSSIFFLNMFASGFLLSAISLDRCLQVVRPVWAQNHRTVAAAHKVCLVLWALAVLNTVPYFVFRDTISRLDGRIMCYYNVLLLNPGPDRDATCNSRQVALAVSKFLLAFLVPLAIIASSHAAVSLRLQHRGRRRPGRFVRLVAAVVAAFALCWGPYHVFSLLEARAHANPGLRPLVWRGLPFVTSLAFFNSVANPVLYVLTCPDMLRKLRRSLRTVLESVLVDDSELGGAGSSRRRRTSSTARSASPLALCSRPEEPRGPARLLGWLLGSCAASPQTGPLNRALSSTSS
SMILES,IC50 [1],IC50 [2]
"COc1ccc(CC(=O)O)cc1-c1ccc(F)c2c1CN(C(=O)[C@@H]1C[C@H]1c1ccccc1)C2 (racemic) [Example 37, (±)-{3-[7-Fluoro-2-(trans-2-phenyl-cyclopropanecarbonyl)-2,3-dihydro-1H-isoindol-4-yl]-4-methoxy-phenyl}-acetic acid]",289 nM,
"COc1ccc(CC(=O)O)cc1-c1ccc(F)c2c1CN(C(=O)[C@@H]1C[C@H]1c1cccc(F)c1)CC2 (racemic) [Example 48, (±)-(3-{5-Fluoro-2-[trans-2-(3-fluoro-phenyl)-cyclopropanecarbonyl]-1,2,3,4-tetrahydro-isoquinolin-8-yl}-4-methoxy-phenyl)-acetic acid]",42 nM,
CCOc1ccc(CC(=O)O)cc1-c1ccc(F)c2c1CN(C(=O)CC1COc3ccccc31)CC2 (racemic) [Example 227],38 nM,
CCOc1ccc(CC(=O)O)cc1-c1ccc(F)c2c1CN(C(=O)CC1COCc3ccccc31)CC2 (racemic) [Example 228],8 nM,
COc1ccc(CC(=O)O)cc1-c1ccc(F)c2c1CN(C(=O)CC1CC(C)(C)Oc3ccccc31)CC2 (racemic) [Example 240],31 nM,
COc1cc(CC(=O)O)ccc1-c1ccc(F)c2c1CN(C(=O)CC1CCOc3ccccc31)CC2 (racemic) [Example 359],28 nM,
"COc1ccc(CC(=O)O)cc1-c1ccc(F)c2c1CN(C(=O)[C@@H]1C[C@H]1c1cccc(F)c1)CC2 [Example 65, (3-{5-Fluoro-2-[(1R,2R)-2-(3-fluoro-phenyl)-cyclopropanecarbonyl]-1,2,3,4-tetrahydro-isoquinolin-8-yl}-4-methoxy-phenyl)-acetic acid]",10 nM,
"COc1cc(CC(=O)O)ccc1-c1ccc(F)c2c1CN(C(=O)CC1CCOc3ccccc31)CC2 (stereo not shown) [Example 200, {4-[2-(2-Chroman-4-yl-acetyl)-5-fluoro-1,2,3,4-tetrahydro-isoquinolin-8-yl]-3-methoxy-phenyl}-acetic acid]",50 nM,
"COc1cc(OCC(=O)O)ccc1-c1ccc(F)c2c1CN(C(=O)OCc1ccccc1)CC2 [Example 424, 8-(4-Carboxymethoxy-2-methoxy-phenyl)-5-fluoro-3,4-dihydro-1H-isoquinoline-2-carboxylic acid benzyl ester]",,444 nM
"O=C(O)Cc1ccc(OCC(F)(F)F)c(-c2ccc(F)c3c2CN(C(=O)[C@@H]2C[C@H]2c2ccccc2)CC3)c1 [Example 426, [3-[5-Fluoro-2-((1R,2R)-2-phenyl-cyclopropanecarbonyl)-1,2,3,4-tetrahydro-isoquinolin-8-yl]-4-(2,2,2-trifluoro-ethoxy)-phenyl]-acetic acid]",,1.9 nM
"O=C(O)Cc1ccc(OCCF)c(-c2ccc(F)c3c2CN(C(=O)[C@@H]2C[C@H]2c2ccccc2)CC3)c1 [Example 427, {4-(2-Fluoro-ethoxy)-3-[5-fluoro-2-((1R,2R)-2-phenyl-cyclopropanecarbonyl)-1,2,3,4-tetrahydro-isoquinolin-8-yl]-phenyl}-acetic acid]",,3.1 nM
"CC(C)(C)Oc1ccc(CC(=O)O)cc1-c1ccc(F)c2c1CN(C(=O)[C@@H]1C[C@H]1c1ccccc1)CC2 [Example 428, {4-tert-Butoxy-3-[5-fluoro-2-((1R,2R)-2-phenyl-cyclopropanecarbonyl)-1,2,3,4-tetrahydro-isoquinolin-8-yl]-phenyl}-acetic acid]",,3.7 nM
"COc1ccc(C2(C(=O)O)CC2)cc1-c1ccc(F)c2c1CN(C(=O)[C@@H]1C[C@H]1c1ccccc1)CC2 [Example 429, 1-{3-[5-Fluoro-2-((1R,2R)-2-phenyl-cyclopropanecarbonyl)-1,2,3,4-tetrahydro-isoquinolin-8-yl]-4-methoxy-phenyl}-cyclopropanecarboxylic acid]",,50.7 nM
"O=C(O)Cc1ccc(OC2CC2)c(-c2ccc(F)c3c2CN(C(=O)OCc2ccccc2)CC3)c1 [Example 430, 8-(5-Carboxymethyl-2-cyclopropoxy-phenyl)-5-fluoro-3,4-dihydro-1H-isoquinoline-2-carboxylic acid benzyl ester]",,14.9 nM
"CCOc1ccc(CC(=O)O)cc1-c1ccc(F)c2c1CN(C(=O)NCc1ccccc1F)CC2 [Example 432, {4-Ethoxy-3-[5-fluoro-2-(2-fluoro-benzylcarbamoyl)-1,2,3,4-tetrahydro-isoquinolin-8-yl]-phenyl}-acetic acid]",,5.3 nM
"CCOc1ccc(CC(=O)O)cc1-c1ccc(F)c2c1CN(C(=O)NCc1cccc(F)c1)CC2 [Example 433, {4-Ethoxy-3-[5-fluoro-2-(3-fluoro-benzylcarbamoyl)-1,2,3,4-tetrahydro-isoquinolin-8-yl]-phenyl}-acetic acid]",,59.3 nM

SMILES,IC50 [1],IC50 [2]
"CCOc1ccc(CC(=O)O)cc1-c1ccc(F)c2c1CN(C(=O)NCc1ccc(F)cc1)CC2 [Example 434, {4-Ethoxy-3-[5-fluoro-2-(4-fluoro-benzylcarbamoyl)-1,2,3,4-tetrahydro-isoquinolin-8-yl]-phenyl}-acetic acid]",,0.7 nM
"CCOc1ccc(CC(=O)O)cc1-c1ccc(F)c2c1CN(C(=O)NCCc1ccccc1)CC2 [Example 435, [4-Ethoxy-3-(5-fluoro-2-phenethylcarbamoyl-1,2,3,4-tetrahydro-isoquinolin-8-yl)-phenyl]-acetic acid]",,2.6 nM
"CCOc1ccc(CC(=O)O)cc1-c1ccc(F)c2c1CN(C(=O)NCc1ccccc1Cl)CC2 [Example 436, {3-[2-(2-Chloro-benzylcarbamoyl)-5-fluoro-1,2,3,4-tetrahydro-isoquinolin-8-yl]-4-ethoxy-phenyl}-acetic acid]",,5.4 nM
"CCOc1ccc(CC(=O)O)cc1-c1ccc(F)c2c1CN(C(=O)NCc1ccccc1OC)CC2 [Example 437, {4-Ethoxy-3-[5-fluoro-2-(2-methoxy-benzylcarbamoyl)-1,2,3,4-tetrahydro-isoquinolin-8-yl]-phenyl}-acetic acid]",,10.9 nM
"CCCNC(=O)N1CCc2c(F)ccc(-c3cc(CC(=O)O)ccc3OCC)c2C1 [Example 439, [4-Ethoxy-3-(5-fluoro-2-propylcarbamoyl-1,2,3,4-tetrahydro-isoquinolin-8-yl)-phenyl]-acetic acid]",,126 nM
"CCOc1cc(CC(=O)O)ccc1-c1ccc(F)c2c1CN(C(=O)NCc1ccccc1F)CC2 [Example 440, {3-Ethoxy-4-[5-fluoro-2-(2-fluoro-benzylcarbamoyl)-1,2,3,4-tetrahydro-isoquinolin-8-yl]-phenyl}-acetic acid]",,3.8 nM
"CCOc1cc(CC(=O)O)ccc1-c1ccc(F)c2c1CN(C(=O)NCc1cccc(F)c1)CC2 [Example 441, {3-Ethoxy-4-[5-fluoro-2-(3-fluoro-benzylcarbamoyl)-1,2,3,4-tetrahydro-isoquinolin-8-yl]-phenyl}-acetic acid]",,17.5 nM
"CCOc1cc(CC(=O)O)ccc1-c1ccc(F)c2c1CN(C(=O)NCc1ccc(F)cc1)CC2 [Example 442, {3-Ethoxy-4-[5-fluoro-2-(4-fluoro-benzylcarbamoyl)-1,2,3,4-tetrahydro-isoquinolin-8-yl]-phenyl}-acetic acid]",,5.3 nM
"CCOc1cc(CC(=O)O)ccc1-c1ccc(F)c2c1CN(C(=O)NCCc1ccccc1)CC2 [Example 443, [3-Ethoxy-4-(5-fluoro-2-phenethylcarbamoyl-1,2,3,4-tetrahydro-isoquinolin-8-yl)-phenyl]-acetic acid]",,18.1 nM
"CCOc1cc(CC(=O)O)ccc1-c1ccc(F)c2c1CN(C(=O)NCc1ccccc1Cl)CC2 [Example 444, {4-[2-(2-Chloro-benzylcarbamoyl)-5-fluoro-1,2,3,4-tetrahydro-isoquinolin-8-yl]-3-ethoxy-phenyl}-acetic acid]",,2 nM
"CCOc1cc(CC(=O)O)ccc1-c1ccc(F)c2c1CN(C(=O)NCc1ccccc1OC)CC2 [Example 445, {3-Ethoxy-4-[5-fluoro-2-(2-methoxy-benzylcarbamoyl)-1,2,3,4-tetrahydro-isoquinolin-8-yl]-phenyl}-acetic acid]",,2.5 nM
"CCOc1cc(CC(=O)O)ccc1-c1ccc(F)c2c1CN(C(=O)NCc1ccccc1)CC2 [Example 446, [4-(2-Benzylcarbamoyl-5-fluoro-1,2,3,4-tetrahydro-isoquinolin-8-yl)-3-ethoxy-phenyl]-acetic acid]",,4.7 nM
"CCCNC(=O)N1CCc2c(F)ccc(-c3ccc(CC(=O)O)cc3OCC)c2C1 [Example 447, [3-Ethoxy-4-(5-fluoro-2-propylcarbamoyl-1,2,3,4-tetrahydro-isoquinolin-8-yl)-phenyl]-acetic acid]",,78.2 nM
"CCOc1cc(CC(=O)O)ccc1-c1ccc(F)c2c1CN(C(=O)NCc1ccccn1)CC2 [Example 448, (3-Ethoxy-4-{5-fluoro-2-[(pyridin-2-ylmethyl)-carbamoyl]-1,2,3,4-tetrahydro-isoquinolin-8-yl}-phenyl)-acetic acid]",,9.2 nM
"CCOc1ccc(CC(=O)O)cc1-c1ccc(F)c2c1CN(C(=O)NCc1ccccn1)CC2 [Example 449, (4-Ethoxy-3-{5-fluoro-2-[(pyridin-2-ylmethyl)-carbamoyl]-1,2,3,4-tetrahydro-isoquinolin-8-yl}-phenyl)-acetic acid]",,14.2 nM

# Reference: US9255090B2, “Heterocyclyl derivatives and their use as prostaglandin D2 receptor modulators” (Actelion Pharmaceuticals Ltd., priority 2012, dated 2016)
